Test results reported in ChEMBL document CHEMBL3046436, “Effects of 1,3-dichloropropene as a methyl bromide alternative for management of nematode, soil-borne disease, and weed in ginger (Zingiber officinale) crops in China” (2012).
Activity calls are given as the source filed them. The calls are words filed in the database; no cut-off is given here.

Assays:
Zingiber officinale [1] = test: Increase in stem diameter of Zingiber officinale (ginger) plants at 120 L/ha applied through fumigation protocol (reference value: 11.3 mm); type: functional
Meloidogyne incognita [2] = test: Nematicidal activity against Meloidogyne incognita (root-knot nematode) in ginger crop fields assessed as root galling index at 180 L/ha measured after 60 days post compound application (reference value: 5.49 root galling index); type: functional
Capsella bursa-pastoris [3] = test: Herbicidal activity against Capsella bursa-pastoris assessed as reduction in weed populations at 90 to 180 L/ha; type: functional, organism-based
Zingiber officinale [4] = test: Increase in medium fruit yield in Zingiber officinale (ginger) plants at 120 L/ha applied through fumigation protocol (reference value: 24.6 ton/ha); type: functional
Stellaria media [5] = test: Herbicidal activity against Stellaria media assessed as reduction in weed populations at 90 to 180 L/ha; type: functional, organism-based
Meloidogyne incognita [6] = test: Nematicidal activity against Meloidogyne incognita (root-knot nematode) in ginger crop fields assessed as number of nematodes per 100 cm3 soil at 180 L/ha measured after 60 days post compound application (reference value: 88.2 nematodes in 100 cm3 soil); type: functional
Digitaria sanguinalis [7] = test: Herbicidal activity against Digitaria sanguinalis (hairy crabgrass) assessed as reduction in weed populations at 90 to 180 L/ha; type: functional, organism-based
Meloidogyne incognita [8] = test: Nematicidal activity against Meloidogyne incognita (root-knot nematode) in ginger crop fields assessed as number of nematodes per 100 cm3 soil at 90 L/ha measured after 40 days post compound application (reference value: 75.3 nematodes in 100 cm3 soil); type: functional
Meloidogyne incognita [9] = test: Nematicidal activity against Meloidogyne incognita (root-knot nematode) in ginger crop fields assessed as number of nematodes per 100 cm3 soil at 180 L/ha measured after 20 days post compound application (reference value: 56.7 nematodes in 100 cm3 soil); type: functional
Zingiber officinale [10] = test: Increase in large fruit yield in Zingiber officinale (ginger) plants at 90 L/ha applied through fumigation protocol (reference value: 20.1 ton/ha); type: functional
Zingiber officinale [11] = test: Increase in marketable fruit yield in Zingiber officinale (ginger) plants at 180 L/ha applied through fumigation protocol (reference value: 48.2 ton/ha); type: functional
Zingiber officinale [12] = test: Increase in stem diameter of Zingiber officinale (ginger) plants at 180 L/ha applied through fumigation protocol (reference value: 11.3 mm); type: functional
Meloidogyne incognita [13] = test: Nematicidal activity against Meloidogyne incognita (root-knot nematode) in ginger crop fields assessed as root galling index at 120 L/ha measured after 60 days post compound application (reference value: 5.49 root galling index); type: functional
Zingiber officinale [14] = test: Increase in plant height of Zingiber officinale (ginger) plants at 90 L/ha applied through fumigation protocol (reference value: 79.6 cm); type: functional
Meloidogyne incognita [15] = test: Nematicidal activity against Meloidogyne incognita (root-knot nematode) in ginger crop fields assessed as number of nematodes per 100 cm3 soil at 90 L/ha measured after 60 days post compound application (reference value: 88.2 nematodes in 100 cm3 soil); type: functional
Meloidogyne incognita [16] = test: Nematicidal activity against Meloidogyne incognita (root-knot nematode) in ginger crop fields assessed as number of nematodes per 100 cm3 soil at 120 L/ha measured after 40 days post compound application (reference value: 75.3 nematodes in 100 cm3 soil); type: functional
Ralstonia solanacearum [17] = test: Antimicrobial activity against Ralstonia solanacearum in ginger plants fields assessed as reduction in ginger blast-induced plant mortality at 120 to 180 L/ha applied through fumigation protocol; type: functional, organism-based
Zingiber officinale [18] = test: Increase in extra-large fruit yield in Zingiber officinale (ginger) plants at 90 L/ha applied through fumigation protocol (reference value: 3.5 ton/ha); type: functional
Zingiber officinale [19] = test: Increase in stem diameter of Zingiber officinale (ginger) plants at 90 L/ha applied through fumigation protocol (reference value: 11.3 mm); type: functional
Zingiber officinale [20] = test: Increase in plant height of Zingiber officinale (ginger) plants at 180 L/ha applied through fumigation protocol (reference value: 79.6 cm); type: functional
Zingiber officinale [21] = test: Increase in leaves number of Zingiber officinale (ginger) plants at 90 to 180 L/ha applied through fumigation protocol; type: functional, organism-based
Zingiber officinale [22] = test: Increase in marketable fruit yield in Zingiber officinale (ginger) plants at 120 L/ha applied through fumigation protocol (reference value: 48.2 ton/ha); type: functional
Zingiber officinale [23] = test: Increase in large fruit yield in Zingiber officinale (ginger) plants at 180 L/ha applied through fumigation protocol (reference value: 20.1 ton/ha); type: functional
Meloidogyne incognita [24] = test: Nematicidal activity against Meloidogyne incognita (root-knot nematode) in ginger crop fields assessed as number of nematodes per 100 cm3 soil at 90 L/ha measured after 20 days post compound application (reference value: 56.7 nematodes in 100 cm3 soil); type: functional
Zingiber officinale [25] = test: Increase in marketable fruit yield in Zingiber officinale (ginger) plants at 90 L/ha applied through fumigation protocol (reference value: 48.2 ton/ha); type: functional
Zingiber officinale [26] = test: Increase in large fruit yield in Zingiber officinale (ginger) plants at 120 L/ha applied through fumigation protocol (reference value: 20.1 ton/ha); type: functional
Meloidogyne incognita [27] = test: Nematicidal activity against Meloidogyne incognita (root-knot nematode) in ginger crop fields assessed as root galling index at 90 L/ha measured after 60 days post compound application (reference value: 5.49 root galling index); type: functional
Meloidogyne incognita [28] = test: Nematicidal activity against Meloidogyne incognita (root-knot nematode) in ginger crop fields assessed as number of nematodes per 100 cm3 soil at 120 L/ha measured after 20 days post compound application (reference value: 56.7 nematodes in 100 cm3 soil); type: functional
Meloidogyne incognita [29] = test: Nematicidal activity against Meloidogyne incognita (root-knot nematode) in ginger crop fields assessed as number of nematodes per 100 cm3 soil at 120 L/ha measured after 60 days post compound application (reference value: 88.2 nematodes in 100 cm3 soil); type: functional
Zingiber officinale [30] = test: Increase in medium fruit yield in Zingiber officinale (ginger) plants at 180 L/ha applied through fumigation protocol (reference value: 24.6 ton/ha); type: functional
Zingiber officinale [31] = test: Increase in extra-large fruit yield in Zingiber officinale (ginger) plants at 180 L/ha applied through fumigation protocol (reference value: 3.5 ton/ha); type: functional
Zingiber officinale [32] = test: Increase in medium fruit yield in Zingiber officinale (ginger) plants at 90 L/ha applied through fumigation protocol (reference value: 24.6 ton/ha); type: functional
Meloidogyne incognita [33] = test: Nematicidal activity against Meloidogyne incognita (root-knot nematode) in ginger crop fields assessed as number of nematodes per 100 cm3 soil at 180 L/ha measured after 40 days post compound application (reference value: 75.3 nematodes in 100 cm3 soil); type: functional
Zingiber officinale [34] = test: Increase in plant height of Zingiber officinale (ginger) plants at 120 L/ha applied through fumigation protocol (reference value: 79.6 cm); type: functional
Zingiber officinale [35] = test: Increase in shoots number of Zingiber officinale (ginger) plants at 90 to 180 L/ha applied through fumigation protocol; type: functional, organism-based
Zingiber officinale [36] = test: Increase in stem diameter of Zingiber officinale (ginger) plants at 400 kg/ha applied through fumigation protocol (reference value: 11.3 mm); type: functional
Meloidogyne incognita [37] = test: Nematicidal activity against Meloidogyne incognita (root-knot nematode) in ginger crop fields assessed as number of nematodes per 100 cm3 soil at 400 kg/ha measured after 60 days post compound application (reference value: 88.2 nematodes in 100 cm3 soil); type: functional
Meloidogyne incognita [38] = test: Nematicidal activity against Meloidogyne incognita (root-knot nematode) in ginger crop fields assessed as number of nematodes per 100 cm3 soil at 400 kg/ha measured after 40 days post compound application (reference value: 75.3 nematodes in 100 cm3 soil); type: functional
Meloidogyne incognita [39] = test: Nematicidal activity against Meloidogyne incognita (root-knot nematode) in ginger crop fields assessed as number of nematodes per 100 cm3 soil at 400 kg/ha measured after 20 days post compound application (reference value: 56.7 nematodes in 100 cm3 soil); type: functional
Digitaria sanguinalis [40] = test: Herbicidal activity against Digitaria sanguinalis (hairy crabgrass) assessed as reduction in weed populations at 400 kg/ha; type: functional, organism-based
Ralstonia solanacearum [41] = test: Antimicrobial activity against Ralstonia solanacearum in ginger plants fields assessed as reduction in ginger blast-induced plant mortality at 400 kg/ha applied through fumigation protocol; type: functional, organism-based
Zingiber officinale [42] = test: Increase in extra-large fruit yield in Zingiber officinale (ginger) plants at 400 kg/ha applied through fumigation protocol (reference value: 3.5 ton/ha); type: functional
Zingiber officinale [43] = test: Increase in marketable fruit yield in Zingiber officinale (ginger) plants at 400 kg/ha applied through fumigation protocol (reference value: 48.2 ton/ha); type: functional
Zingiber officinale [44] = test: Increase in medium fruit yield in Zingiber officinale (ginger) plants at 400 kg/ha applied through fumigation protocol (reference value: 24.6 ton/ha); type: functional
Capsella bursa-pastoris [45] = test: Herbicidal activity against Capsella bursa-pastoris assessed as reduction in weed populations at 400 kg/ha; type: functional, organism-based
Zingiber officinale [46] = test: Increase in large fruit yield in Zingiber officinale (ginger) plants at 400 kg/ha applied through fumigation protocol (reference value: 20.1 ton/ha); type: functional
Meloidogyne incognita [47] = test: Nematicidal activity against Meloidogyne incognita (root-knot nematode) in ginger crop fields assessed as root galling index at 400 kg/ha measured after 60 days post compound application (reference value: 5.49 root galling index); type: functional
Stellaria media [48] = test: Herbicidal activity against Stellaria media assessed as reduction in weed populations at 400 kg/ha; type: functional, organism-based
Zingiber officinale [49] = test: Increase in plant height of Zingiber officinale (ginger) plants at 400 kg/ha applied through fumigation protocol (reference value: 79.6 cm); type: functional

## Cl/C=C/CCl [1,3-DICHLOROPROPENE]
Zingiber officinale [1]
  Activity: 12.8 mm
Meloidogyne incognita [2]
  Root_galling_index: 2.31
Capsella bursa-pastoris [3]
  Activity: inactive
Zingiber officinale [4]
  Crop_yield: 36.3 tons/ha
Stellaria media [5]
  Activity: inactive
Meloidogyne incognita [6]
  Activity: 36.9 /10'2cm3
Digitaria sanguinalis [7]
  Activity: inactive
Meloidogyne incognita [8]
  Activity: 45.1 /10'2cm3
Meloidogyne incognita [9]
  Activity: 17.3 /10'2cm3
Zingiber officinale [10]
  Crop_yield: 24.9 tons/ha
Zingiber officinale [11]
  Crop_yield: 75.8 tons/ha
Zingiber officinale [12]
  Activity: 13.9 mm
Meloidogyne incognita [13]
  Root_galling_index: 3.34
Zingiber officinale [14]
  Activity: 82.6 cm
Meloidogyne incognita [15]
  Activity: 58.5 /10'2cm3
Meloidogyne incognita [16]
  Activity: 38.4 /10'2cm3
Ralstonia solanacearum [17]
  Activity: Active
Zingiber officinale [18]
  Crop_yield: 7.4 tons/ha
Zingiber officinale [19]
  Activity: 12.1 mm
Zingiber officinale [20]
  Activity: 88.9 cm
Zingiber officinale [21]
  Activity: Active
Zingiber officinale [22]
  Crop_yield: 71.1 tons/ha
Zingiber officinale [23]
  Crop_yield: 29.5 tons/ha
Meloidogyne incognita [24]
  Activity: 33.6 /10'2cm3
Zingiber officinale [25]
  Crop_yield: 64.7 tons/ha
Zingiber officinale [26]
  Crop_yield: 26.9 tons/ha
Meloidogyne incognita [27]
  Root_galling_index: 3.66
Meloidogyne incognita [28]
  Activity: 24.2 /10'2cm3
Meloidogyne incognita [29]
  Activity: 45.5 /10'2cm3
Zingiber officinale [30]
  Crop_yield: 38.2 tons/ha
Zingiber officinale [31]
  Crop_yield: 8.1 tons/ha
Zingiber officinale [32]
  Crop_yield: 32.4 tons/ha
Meloidogyne incognita [33]
  Activity: 27.3 /10'2cm3
Zingiber officinale [34]
  Activity: 85.4 cm
Zingiber officinale [35]
  Activity: Active

## CBr [BROMOMETHANE]
Zingiber officinale [36]
  Activity: 13.5 mm
Meloidogyne incognita [37]
  Activity: 47.4 /10'2cm3
Meloidogyne incognita [38]
  Activity: 31.6 /10'2cm3
Meloidogyne incognita [39]
  Activity: 22.3 /10'2cm3
Digitaria sanguinalis [40]
  Activity: Active
Ralstonia solanacearum [41]
  Activity: Active
Zingiber officinale [42]
  Crop_yield: 8.6 tons/ha
Zingiber officinale [43]
  Crop_yield: 76.4 tons/ha
Zingiber officinale [44]
  Crop_yield: 39.1 tons/ha
Capsella bursa-pastoris [45]
  Activity: Active
Zingiber officinale [46]
  Crop_yield: 28.7 tons/ha
Meloidogyne incognita [47]
  Root_galling_index: 2.68
Stellaria media [48]
  Activity: Active
Zingiber officinale [49]
  Activity: 91.3 cm
